In patent publication US20240158446A1, “CYCLIC COMPOUND HAVING SELECTIVE INHIBITORY ACTION ON KRAS OVER HRAS AND NRAS” (CHUGAI SEIYAKU KABUSHIKI KAISHA, priority 2021, published 2024):
Read-outs that look alike come from different tables or passages of the source.

Assays:
[1] = biological target: GDP-bound KRAS wild-type protein (Homo sapiens, UniProt P01116); experiment: Binding to KRAS by surface plasmon resonance (SPR), Single Cycle Kinetics; settings: GDP-bound KRAS wild-type protein, read-out: KRAS KD
GDP-bound KRAS wild-type protein, sequence (P01116 whole entry): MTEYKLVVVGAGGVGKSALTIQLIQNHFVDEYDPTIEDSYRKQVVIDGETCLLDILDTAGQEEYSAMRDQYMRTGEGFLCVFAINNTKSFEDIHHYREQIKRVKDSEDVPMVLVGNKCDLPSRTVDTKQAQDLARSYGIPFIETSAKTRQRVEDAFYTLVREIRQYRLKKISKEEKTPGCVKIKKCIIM

[2] = biological target: GDP-bound NRAS wild-type protein (Homo sapiens, UniProt P01111); experiment: Binding to NRAS by surface plasmon resonance (SPR), Single Cycle Kinetics; settings: SPR, GDP-bound NRAS wild-type protein vs GDP-bound KRAS wild-type protein
GDP-bound NRAS wild-type protein, sequence (P01111 whole entry): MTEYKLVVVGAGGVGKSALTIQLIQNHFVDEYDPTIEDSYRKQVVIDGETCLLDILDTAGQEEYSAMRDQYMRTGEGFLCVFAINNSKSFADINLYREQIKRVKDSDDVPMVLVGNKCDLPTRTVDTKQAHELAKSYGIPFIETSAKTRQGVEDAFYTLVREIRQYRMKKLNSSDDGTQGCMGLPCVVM

[3] = biological target: GDP-bound HRAS wild-type protein (Homo sapiens, UniProt P01112); experiment: Binding to HRAS by surface plasmon resonance (SPR), Single Cycle Kinetics; settings: SPR, GDP-bound HRAS wild-type protein vs GDP-bound KRAS wild-type protein
GDP-bound HRAS wild-type protein, sequence (P01112 whole entry): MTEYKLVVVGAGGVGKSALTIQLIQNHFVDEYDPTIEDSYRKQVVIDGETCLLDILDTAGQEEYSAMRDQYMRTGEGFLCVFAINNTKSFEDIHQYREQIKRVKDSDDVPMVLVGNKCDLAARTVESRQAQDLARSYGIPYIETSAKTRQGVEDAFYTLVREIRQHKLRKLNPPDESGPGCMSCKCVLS

[4] = system: human lung cancer strain NCI-H441;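 note: cell proliferation inhibition after four days measured by CellTiter-Glo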
[5] = SPR, Single Cycle Kinetics, 1:1 binding model
[6] = SPR Single Cycle Kinetics, 1:1 binding model

| Structure (SMILES) | Kd [1, 5] | NRAS/KRAS (ratio of KD value for NRAS to KD value for KRAS) ([2]; KD ratio class) | HRAS/KRAS (ratio of KD value for HRAS to KD value for KRAS) ([3]; KD ratio class) | IC50 [4] | Kd ([1]; SPR, Single Cycle Kinetics) | NRAS/KRAS (ratio of KD value for NRAS to KD value for KRAS) [2] | HRAS/KRAS (ratio of KD value for HRAS to KD value for KRAS) [3] | Kd [1, 6] | NRAS/KRAS (ratio of KD value with respect to NRAS to KD value with respect to KRAS) [2] | HRAS/KRAS (ratio of KD value with respect to HRAS to KD value with respect to KRAS) [3] |
| --- | --- | --- | --- | --- | --- | --- | --- | --- | --- | --- |
| CCO[C@@H]1C[C@H]2C(=O)NC3(CCC3)C(=O)N(C)[C@@H](C3CCCC3)C(=O)N(C)[C@H](C(=O)N(C)C)CC(=O)N(C)[C@@H](CC3CCCC3)C(=O)N[C@@H]([C@@H](C)CC)C(=O)N(C)CC(=O)N(C)[C@H]3C/C=C\CCN(C3=O)[C@@H](CC3CCCCC3)C(=O)N(C)CC(=O)N[C@@H](CCc3cc(F)c(C(F)(F)F)c(F)c3)C(=O)N2C1 [PP1472, (2S,8S,12R,14S,20S,23S,27S,30S,36S,38Z)-2-(cyclohexylmethyl)-20-cyclopentyl-27-(cyclopentylmethyl)-8-[2-[3,5-difluoro-4-(trifluoromethyl)phenyl]ethyl]-12-ethoxy-N,N,4,19,22,26,32,35-octamethyl-30-[(1S)-1-methylpropyl]-3,6,9,15,18,21,25,28,31,34,42-undecaoxo-spiro[1,4,7,10,16,19,22,26,29,32,35-undecazatricyclo[34.5.1.0^10,14]dotetracont-38-ene-17,1′-cyclobutane]-23-carboxamide] | 0.14 nM | A (a compound having 10 or more and less than 20 is denoted as A) | A (a compound having 10 or more and less than 20 is denoted as A) | 37.1 nM |  |  |  |  |  |  |
| CCC(CC)[C@H]1C(=O)N(C)[C@H](C(=O)N(C)C)CC(=O)N(C)[C@@H](COC)C(=O)N[C@@H]([C@@H](C)CC)C(=O)N(C2CC2)CC(=O)N(C)[C@H]2C/C=C\CCN(C2=O)[C@@H](Cc2ccc(C)cc2)C(=O)N(C)CC(=O)N[C@@H](CCc2ccc(Cl)c(Cl)c2)C(=O)N2C[C@H](OC(C)C)C[C@H]2C(=O)NC2(CC(C)(C)C2)C(=O)N1C (stereo in doubt) [PP2509] |  |  |  | 91.3 nM | 2.6 nM | AA (a compound having 20 or more is denoted as AA) | A (a compound having 10 or more and less than 20 is denoted as A) |  |  |  |
| CCO[C@@H]1C[C@H]2C(=O)NC3(CCCC3)C(=O)N(C)[C@@H](C3CCCC3)C(=O)N(C)[C@H](C(=O)N(C)C)CC(=O)N(C)[C@@H](C)C(=O)N[C@@H]([C@@H](C)CC)C(=O)N(C)CC(=O)N(C)[C@H]3C/C=C\CCN(C3=O)[C@@H](CC3CCCCC3)C(=O)N(C)CC(=O)N[C@@H](CCc3cc(F)c(C(F)(F)F)c(F)c3)C(=O)N2C1 [PP1470] | 0.22 nM | A (a compound having 10 or more and less than 20 is denoted as A) | A (a compound having 10 or more and less than 20 is denoted as A) | 111 nM |  |  |  |  |  |  |
| CC[C@H](C)[C@@H]1NC(=O)[C@H](COC)N(C)C(=O)C[C@@H](C(=O)N(C)C)N(C)C(=O)[C@H](C2CCCC2)N(C)C(=O)C2(CC(C)(C)C2)NC(=O)[C@@H]2C[C@@H](OC(C)C)CN2C(=O)[C@H](CCc2ccc(Cl)c(Cl)c2)NC(=O)CN(C)C(=O)[C@H](CC2CCCCC2)N2CC/C=C\C[C@@H](C2=O)N(C)C(=O)CN(C2CC2)C1=O [PP2513] |  |  |  | 303 nM | 2.6 nM | A (a compound having 10 or more and less than 20 is denoted as A) | A (a compound having 10 or more and less than 20 is denoted as A) |  |  |  |
| CC[C@H](C)[C@@H]1NC(=O)[C@H](CC)N(C)C(=O)C[C@@H](C(=O)N(C)C)N(C)C(=O)[C@H](C2CCCC2)N(C)C(=O)C2(CCC2)NC(=O)[C@@H]2COCCN2C(=O)[C@H](CCc2cc(F)c(C(F)(F)F)c(F)c2)NC(=O)CN(C)C(=O)[C@H](Cc2ccc(C(F)(F)F)cc2)N2CC/C=C\C[C@@H](C2=O)N(C)C(=O)CN(C)C1=O [PP1138] |  |  |  | 244 nM | 0.19 nM | A (a compound having 10 or more and less than 20 is denoted as A) | A (a compound having 10 or more and less than 20 is denoted as A) |  |  |  |
| CC[C@H](C)[C@@H]1NC(=O)[C@H](CC(C)C)N(C)C(=O)C[C@@H](C(=O)N2CCOCC2)N(C)C(=O)[C@H](C2CCCC2)N(C)C(=O)C2(CCCC2)NC(=O)[C@@H]2[C@@H](O)CCN2C(=O)[C@H](CCc2cc(F)c(C(F)(F)F)c(F)c2)NC(=O)CN(C)C(=O)[C@H](Cc2ccc(C(F)(F)F)cc2)N2CCCC[C@@H](C2=O)N(C)C(=O)CN(C)C1=O [PP0558] |  |  |  | 31.4 nM |  |  |  | 0.067 nM | B (a compound having 3 or more and less than 10 is denoted as B) | B (a compound having 3 or more and less than 10 is denoted as B) |
| CCO[C@@H]1C[C@H]2C(=O)NC3(CCC3)C(=O)N(C)[C@@H](C3CCCC3)C(=O)N(C)[C@H](C(=O)N3CCOCC3)CC(=O)N(C)[C@@H](CC(F)F)C(=O)N[C@@H]([C@@H](C)CC)C(=O)N(C)CC(=O)N(C)[C@H]3CCCCCN(C3=O)[C@@H](Cc3ccc(F)cc3)C(=O)N(C)CC(=O)N[C@@H](CCc3cc(F)c(C(F)(F)F)c(F)c3)C(=O)N2C1 [PP1177] |  |  |  | 32.5 nM | 0.081 nM | B (a compound having 3 or more and less than 10 is denoted as B) | B (a compound having 3 or more and less than 10 is denoted as B) |  |  |  |
| CCOC[C@H]1C(=O)N[C@@H]([C@@H](C)CC)C(=O)N(C)CC(=O)N(C)[C@H]2C/C=C\CCN(C2=O)[C@@H](CC2CCCCC2)C(=O)N(C)CC(=O)N[C@@H](CCc2ccc(C(F)(F)F)c(OC)c2)C(=O)N2C[C@H](OCC)C[C@H]2C(=O)NC2(CC(C)(C)C2)C(=O)N(C)[C@@H](C(CC)CC)C(=O)N(C)[C@H](C(=O)N(C)C)CC(=O)N1C [PP2470] |  |  |  | 118 nM | 1.8 nM | A (a compound having 10 or more and less than 20 is denoted as A) | A (a compound having 10 or more and less than 20 is denoted as A) |  |  |  |
| CCO[C@@H]1C[C@H]2C(=O)NC3(CCCC3)C(=O)N(C)[C@@H](C3CCCC3)C(=O)N(C)[C@H](C(=O)N(C)C)CC(=O)N(C)[C@@H](CC3CC3)C(=O)N[C@@H]([C@@H](C)CC)C(=O)N(C)CC(=O)N(C)[C@H]3C[C@@H](C)[C@@H](C)CN(C3=O)[C@@H](Cc3ccc(C(F)(F)F)cc3)C(=O)N(C)CC(=O)N[C@@H](CCc3cc(F)c(C(F)(F)F)c(F)c3)C(=O)N2C1 [PP1356] | 0.047 nM | B (a compound having 3 or more and less than 10 is denoted as B) | B (a compound having 3 or more and less than 10 is denoted as B) | 3.3 nM |  |  |  |  |  |  |
| CCO[C@@H]1C[C@H]2C(=O)NC3(CCC3)C(=O)N(C)[C@@H](C3CCCC3)C(=O)N(C)[C@H](C(=O)N(C)C)CC(=O)N(C)[C@@H](Cc3ccc(Cl)c(Cl)c3)C(=O)N[C@@H]([C@@H](C)CC)C(=O)N(C)CC(=O)N(C)[C@H]3CCCCCN(C3=O)[C@@H](Cc3ccc(C(F)(F)F)cc3)C(=O)N(C)CC(=O)N[C@@H](CCc3cc(F)c(C(F)(F)F)c(F)c3)C(=O)N2C1 [PP1174] |  |  |  | 85.2 nM | 1 nM | B (a compound having 3 or more and less than 10 is denoted as B) | B (a compound having 3 or more and less than 10 is denoted as B) |  |  |  |
| CCO[C@@H]1C[C@H]2C(=O)NC3(CCC3)C(=O)N(C)[C@@H](C3CCCC3)C(=O)N(C)[C@H](C(=O)N3CCOCC3)CC(=O)N(C)C(C)(C)C(=O)N[C@@H]([C@@H](C)CC)C(=O)N(C)CC(=O)N(C)[C@H]3CCCCN(C3=O)[C@@H](Cc3ccc(C(F)(F)F)cc3)C(=O)N(C)CC(=O)N[C@@H](CCc3cc(F)c(C(F)(F)F)c(F)c3)C(=O)N2C1 [PP0722] |  |  |  | 2600 nM |  |  |  | 25 nM | C (A compound having a KD ratio of 0.1 or more and less than 3 is denoted as C) | B (a compound having 3 or more and less than 10 is denoted as B) |
| CCOC[C@H]1C(=O)N[C@@H]([C@@H](C)CC)C(=O)N(C)CC(=O)N(C)[C@H]2C/C=C\CCN(C2=O)[C@@H](Cc2ccc(C)cc2)C(=O)N(C)CC(=O)N[C@@H](CCc2ccc(C(F)(F)F)c(Cl)c2)C(=O)N2C[C@@H](C)C[C@H]2C(=O)NC2(CC(C)(C)C2)C(=O)N(C)[C@@H](C2CCCC2)C(=O)N(C)[C@H](C(=O)N(C)CC)CC(=O)N1C [PP2451] |  |  |  | 8.6 nM | 0.17 nM | A (a compound having 10 or more and less than 20 is denoted as A) | A (a compound having 10 or more and less than 20 is denoted as A) |  |  |  |
